Article PMC11448502, “Cryo-EM structures of the human P2X1 receptor reveal subtype-specific architecture and antagonism by supramolecular ligand-binding” (Nature Communications, 2024)
Where a chain is given by its changes, count along the chain named. Where “and” joins values, the source holds several entries; their conditions need not be identical. Equal values may be shown once. Entries after “also recorded” stand apart in the source; their conditions may differ.

Experiments:
hP2X1 K136A [1] = target: T1, hP2X1 K136A (Homo sapiens, UniProt P51575, K136A); experiment: ATP dose response (EC50), TEVC in oocytes; assay type: cell-based
T1 construct: hP2X1 mRNA that was made from linearized full-length wild-type or mutant pcDNA 3.1x; expressed in transfected cells; host or cells: Xenopus laevis oocytes (mRNA injection)
T1 sequence (P51575 1-399 K136A): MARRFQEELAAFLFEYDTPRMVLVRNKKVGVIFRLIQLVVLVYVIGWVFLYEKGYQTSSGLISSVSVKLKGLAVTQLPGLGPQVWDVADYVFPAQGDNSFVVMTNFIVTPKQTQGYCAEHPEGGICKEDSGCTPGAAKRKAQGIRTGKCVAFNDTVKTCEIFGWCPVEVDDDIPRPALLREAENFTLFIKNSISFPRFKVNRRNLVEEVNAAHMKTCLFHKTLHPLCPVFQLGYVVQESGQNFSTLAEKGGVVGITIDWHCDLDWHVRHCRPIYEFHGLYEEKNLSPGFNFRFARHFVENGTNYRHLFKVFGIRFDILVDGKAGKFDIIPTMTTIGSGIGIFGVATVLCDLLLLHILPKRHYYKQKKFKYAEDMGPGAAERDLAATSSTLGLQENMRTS
Experimental: (§1) Oocytes were purchased defolliculated from Ecocyte Bioscience in Barth’s Solution (88 mM NaCl, 1 mM KCl, 0.82 mM MgSO4, 0.33 mM Ca(NO3)2, 0.41 mM CaCl2, 2.4 mM NaHCO3, 5 mM Tris-HCl) supplemented with penicillin (100 U/mL) and streptomycin (100 µg/mL). Xenopus laevis oocytes were then injected with 50 nL of 100 ng/μL hP2X1 mRNA that was made from linearized full-length wild-type or mutant pcDNA 3.1x according to the protocol provided in the mMessage mMachine kit (Invitrogen). Injected oocytes were allowed to express for ~20 hours at 18 °C before recording was performed.
(§2) Data acquisition was performed using the Oocyte Clamp OC-725C amplifier and pClamp 8.2 software. Buffers were applied using a gravity fed RSC-200 Rapid Solution Changer that flows at ~5 mL/min. All experiments use Sutter filamented glass 10 cm in length with an inner diameter of 0.69 mm and an outer diameter of 1.2 mm to impale oocytes and clamp the holding voltage at −60 mV. Experiments were recorded in buffer containing 10 mM HEPES (pH 7.4), 140 mM NaCl, 5 mM KCl, 2 mM CaCl2, 2 mM MgCl2, and 10 mM glucose.
(§3) Excitatory responses to a dilution series of ATP between 6.4 nM and 10 mM were examined across the different mutants. Each evoked response was normalized to an initial ATP-induced current evoked by the following concentrations: 500 µM ATP for R292A, 2 mM ATP for K309A, and 100 µM ATP for the remaining mutants and wild-type receptor. The data was fit in Prism 9 using the nonlinear regression named “EC50, x is concentration” to afford EC50 values. This value was then averaged amongst each singular condition and reported as an average plus or minus the standard deviation.

hP2X1 K249A = target: T2, hP2X1 K249A (Homo sapiens, UniProt P51575, K249A); experiment: ATP dose response (EC50), TEVC in oocytes; assay type: cell-based; details: for Normalized Current: hP2X1 K249A
T2 construct: hP2X1 mRNA that was made from linearized full-length wild-type or mutant pcDNA 3.1x; expressed in transfected cells; host or cells: Xenopus laevis oocytes (mRNA injection)
T2 sequence (P51575 1-399 K249A): T1 sequence (P51575 1-399 K136A) with A136K, K249A
Experimental: as §1, §2, §3

P2X3 = tested on: P2X3; design: method as in doi: 10.1111/bph.15299; details: reviewer comment, ref doi: 10.1111/bph.15299, read-out: EC50 of ATP; cited from earlier work
hP2X1 K136A [2] = target: T1, hP2X1 K136A; experiment: NF449 inhibition dose response (IC50), TEVC in oocytes; assay type: cell-based; details: for Normalized Current: hP2X1 K136A
Experimental: as §1, §2
To test a dilution series of an antagonist at discrete concentrations, 10 µM ATP (2 mM ATP for K309A only) was first applied to evoke an initial maximum current. The oocyte was then washed with buffer for one minute, followed by one minute application of an antagonist test-concentration, and concluded by co-application of the same test concentration with 10 µM ATP (2 mM ATP for K309A). The antagonized signal was then normalized against the initial ATP excitatory signal. Each test concentration was performed in triplicate across different oocytes. The data was then fit to a nonlinear regression named “[inhibitor] vs. response – Variable slope (four parameters)” in Prism 9 to produce a sigmoidal curve and afford an IC50 value. Each singular condition was used to generate an average which is reported plus or minus its standard deviation between three discrete trials.

P2X1 = tested on: P2X1; design: method as in doi.org/10.1074/jbc.M114.592246; details: reviewer comment; ref doi.org/10.1074/jbc.M114.592246; cited from earlier work

Row | Compound | EC50 of ATP (hP2X1 K136A [1]; TEVC) | Normalized Current (hP2X1 K136A [1]; [ATP] 1.000E-04 M) | Normalized Current (hP2X1 K136A [1]; [ATP] 2.000E-05 M) | Normalized Current (hP2X1 K136A [1]; [ATP] 4.000E-06 M) | Normalized Current (hP2X1 K136A [1]; [ATP] 5.000E-04 M) | Normalized Current (hP2X1 K136A [1]; [ATP] 8.000E-07 M) | apparent affinity (EC50) of ATP, effect of mutation (hP2X1 K249A; hP2X1 K249A vs wild-type, TEVC) | Normalized Current (hP2X1 K249A; [ATP] 1.000E-04 M) | Normalized Current (hP2X1 K249A; [ATP] 2.000E-05 M) | Normalized Current (hP2X1 K249A; [ATP] 4.000E-06 M) | Normalized Current (hP2X1 K249A; [ATP] 8.000E-07 M) | EC50 (P2X3) | reduction in inhibitory potency (IC50) of NF449 (hP2X1 K136A [2]; hP2X1 K136A vs wild-type) | Normalized Current (hP2X1 K136A [2]; [NF449] 1.600E-09 M) | Normalized Current (hP2X1 K136A [2]; [NF449] 2.000E-07 M) | Normalized Current (hP2X1 K136A [2]; [NF449] 3.200E-10 M) | Normalized Current (hP2X1 K136A [2]; [NF449] 4.000E-08 M) | Normalized Current (hP2X1 K136A [2]; [NF449] 8.000E-09 M) | Hill coefficient (P2X1)
1 | Nc1ncnc2c1ncn2[C@@H]1O[C@H](COP(=O)(O)OP(=O)(O)OP(=O)(O)O)[C@@H](O)[C@H]1O [ATP] | did not affect | 0.9825 and 0.9019 and 0.8989 | 0.8446 and 0.8328 and 0.7216 | 0.7216 and 0.6921 and 0.6232 | 1.035 and 0.9912 and 0.9735 | 0.3703 and 0.2936 and 0.2241 | do not appear to significantly change; also recorded: no major effect; also recorded: moderately increases | 1.03 and 1.005 and 0.9647 | 1.005 and 0.9326 and 0.8353 | 0.7721 and 0.7584 and 0.7231 | 0.6172 and 0.5832 and 0.5545 | 500 to 1000 nM | – | – | – | – | – | – | –
2 | O=C(Nc1cc(C(=O)Nc2ccc(S(=O)(=O)O)cc2S(=O)(=O)O)cc(C(=O)Nc2ccc(S(=O)(=O)O)cc2S(=O)(=O)O)c1)Nc1cc(C(=O)Nc2ccc(S(=O)(=O)O)cc2S(=O)(=O)O)cc(C(=O)Nc2ccc(S(=O)(=O)O)cc2S(=O)(=O)O)c1 [NF449, 4,4’,4”,4’’’-(carbonylbis(imino-5,1,3-benzenetriylbis(carbonylimino)))tetrakis-benzene-1,3-disulfonic acid] | – | – | – | – | – | – | – | – | – | – | – | – | 39 fold | 1 | 0.205 and 0.1861 and 0.1104 | 0.9716 and 0.9527 and 0.8864 | 0.5079 and 0.4606 and 0.4322 | 0.7634 and 0.7445 and 0.5647 | ~ 1.4
